From patent US11912755B2, “Endostatin fragments and variants for use in treating fibrosis” (iBio, Inc., priority 2015, dated 2024)
Entries after “also recorded” stand apart in the source; their conditions may differ. Ends that are not written are not given here.

Assays:
[1] = test system: human skin explants; assay: Ex vivo human skin assay, dermal thickness; type: cell-based
Procedure: Ex vivo human skin assays. Human abdominal skin was obtained from corrective plastic surgery. As previously described (Yasuoka et al., The Open Rheumatol J 2008; 2:17-22), subcutaneous fat tissue was removed uniformly and skin tissue was cut into 1.5 cm×1.5 cm sections. The following were injected intradermally in a total volume of 100 μl 1×PBS: rE alone (1-10 μg/ml), endostatin peptides alone (10 μg/ml), rE or endostatin peptides (1-20 μg/ml) in combination with TGF-β (10 ng/ml), and TGF-β alone (10 ng/ml). In some experiments, human skin was first injected with TGF-β for 48 h followed by recombinant endostatin (rE) administration in the same injection site as TGF-β. Explants containing complete epidermal and dermal layers were cultured in an air liquid interface with the epidermal and keratin layers side up and exposed to air. The culture medium was replaced every other day. After 1 or 2 weeks, skin tissue corresponding to an area with 8-mm diameter centered around the injection site was harvested using disposable 8-mm ACUPUNCH® (Acuderm, Inc., Lauderdale, FL). Skin tissue was fixed in 10% formalin prior to embedding in paraffin.
Measurement of Skin Dermal Thickness. Six μm sections of paraffin-embedded human and mouse skin tissues were stained with hematoxylin and eosin (H&E). In some experiments, sections were stained with Masson trichrome which identifies collagens. Images were taken on a Nikon Eclipse 800 microscope. The thickness of the dermis was measured in 6 random fields of each section using the image/J® software. Data are shown in arbitrary units.

[2] = test system: bleomycin induced dermal fibrosis; assay: Bleomycin-induced dermal fibrosis in mouse skin; type: in vivo; conditions: single administration of E4 10 μg/ml on first day, daily bleomycin; skin harvested after 10 days
Procedure: FIGS. 8A-8B. The effect of endostatin E-4 on bleomycin induced dermal fibrosis in vivo. FIG. 8A: Mice were injected subcutaneously with 1×PBS as vehicle (V) or Bleomycin (Bleo; 20 μg/mouse) daily. E-4 (10 μg/ml) was mixed with bleomycin on the first day, and daily bleomycin administration was continued without subsequent injections of E4 (Bleo+E-4). Skin was harvested after 10 days. Sections were stained with H&E. Magnification, 100×. Data represent three independent experiments. Mann-Whitney U test was used for statistical analysis. * P<0.001, **P<0.00001.
E4, a peptide representing the carboxy terminus of human endostatin, can attenuate fibrosis triggered by multiple fibrogenic factors. The anti-fibrotic effects of E4 can be detected whether administered concomitantly with or following the fibrogenic trigger. The efficacy of E4 was confirmed in […] pre-clinical models of fibrosis: a) bleomycin-induced dermal fibrosis in vivo in mouse skin, b) TGF-β induced dermal fibrosis in mouse skin, and c) bleomycin-induced pulmonary fibrosis. […]
For these studies, fibrosis was assessed by measurement of dermal thickness on H&E skin sections (skin), assessment of collagen levels by Masson Trichrome staining (skin and lung), and measurement of collagen levels by Sircol assay (lung). […] Results were assessed using the unpaired t test and the 3-way ANOVA (for the ID1 data).

[3] = test system: bleomycin induced lung fibrosis; assay: Bleomycin-induced pulmonary fibrosis in mice (E4); type: in vivo, mouse
Procedure: FIG. 10A-10C. E4 attenuates bleomycin induced lung fibrosis in vivo. FIG. 10A: Sixty μg of bleomycin was administrated intratracheally in combination with DMSO as a vehicle (Bleo) or E-4 (Bleo+E-4; 10 μg/ml). In some mice, E-4 (10 μg/ml) was administered intratracheally (IT) three days following bleomycin treatment (Bleo+E-4L). PBS was used as a vehicle for bleomycin (V). Lungs were harvested 10 days post-treatment. Representative images stained with H&E (left panel) and Masson trichrome (right panel) are representative of 3 independent experiments. Magnification, 100×. […] FIG. 10B: Quantification of acid soluble collagen obtained from mouse lungs treated with V. Bleo, Bleo+E-4, and Bleo+E-4L. The levels of collagen are presented as μg/mg (lung) from three independent experiments. Unpaired-t test was used for statistical analysis. *P<0.05. […] FIG. 10C: Lower magnification (2×) of mouse lung shown in FIG. 9 (BLM+E4/E4L IT day 10). For Bleo+E4L, Bleo was administered first, then there was a lag of three days between Bleo and E4 administration).
FIG. 11. […]
E4, a peptide representing the carboxy terminus of human endostatin, can attenuate fibrosis triggered by multiple fibrogenic factors. The anti-fibrotic effects of E4 can be detected whether administered concomitantly with or following the fibrogenic trigger. […]
For these studies, fibrosis was assessed by measurement of dermal thickness on H&E skin sections (skin), assessment of collagen levels by Masson Trichrome staining (skin and lung), and measurement of collagen levels by Sircol assay (lung). Furthermore, to confirm the mechanism by which E4 exerts its anti-fibrotic effects, the production of extra-cellular matrix (ECM) components, the levels of enzymes that promote matrix stabilization and thus accumulation and levels of those that degrade ECM components, and levels of transcription factors downstream of the pro-fibrotic triggers were evaluated. Results were assessed using the unpaired t test and the 3-way ANOVA (for the ID1 data).

[4] = test system: ID1; assay: Real-time PCR of ID1 mRNA in primary human lung fibroblasts; type: cell-based
Procedure: FIG. 15. […] Real-time PCR analysis was performed to determine the ID1 mRNA levels under the indicated conditions.

[5] = test system: uPA; assay: Genes regulated by E4: uPA; type: cell-based, human; conditions: HuF-T; RT-qPCR, protein expression levels, enzyme activity
Procedure: (§1) Several experiments have been performed to identify the mechanisms by which E4 exerts its anti-fibrotic activity. Real-time quantitative PCR (qPCR)-based arrays were performed on RNA extracted from primary human lung fibroblasts or mouse lung tissue stimulated with various fibrotic triggers in the absence and presence of E4 treatment in order to identify genes influenced by the endostatin peptide.
(§2) The arrays identified several genes that have been previously implicated in fibrosis to be influenced by E4 treatment. These genes included connective tissue growth factor (CTGF), insulin-like growth factor binding protein (IGFBP)-3, matrix metalloproteases (MMP)-1 and MMP-3, urokinase plasminogen activator (uPA), plasminogen activator inhibitor (PAI)-1, and hepatocyte growth factor (HGF) with levels either decreased or increased in the presence of E4 as shown in TABLE 5.

[6] = test system: HGF; assay: Genes regulated by E4: HGF; type: cell-based, human; conditions: HuF-T and mouse bleomycin model of pulmonary fibrosis; RT-qPCR, protein expression
Procedure: as §1, §2

[7] = test system: MMP-1; assay: Genes regulated by E4: MMP-1; type: cell-based, human; conditions: HuF-T; RT-qPCR, protein expression levels, zymography, MMP-1 activity assay
Procedure: as §1, §2

Which results are given for “E4: SEQ ID NO: 21, amino acids 133-180 of human endostatin with a C-terminal amide (SYCETWRTEAPSATGQASSLLGGRLLGQSAASCHHAYIVLCIENSFMT-NH2; cysteine pairing not given here)”?
TGF-β-induced skin fibrosis, dose response ([1]; concentrations of 5-20 μg/ml with TGF-β): clearly ameliorated; dermal thickness, baseline effect ([1]; injected alone, no TGF-β, rE 1, 5, 10 μg/ml, peptides 10 μg/ml): tendency towards reduction; development of fibrosis as measured by dermal thickness ([1]; peptides 10 μg/ml with 10 ng/ml TGF-β, vs TGF-β alone): significantly abolished; bleomycin induced dermal fibrosis [2]: significant attenuation; fibrosis and Masson Trichrome staining in lung ([3]; E4 10 μg/ml IT concomitantly with or three days following bleomycin, day 10): marked reduction; collagen levels in mouse lungs ([3]; E4 given 3 days after bleomycin, acid soluble collagen): significantly reduced; bleomycin induced lung fibrosis on day 21 ([3]; bleomycin IT day 1, E4 IP or IT at day 3): significant attenuation; ID1 levels [4]: increases; also recorded: inducing expression; Effect of E4 peptide on uPA [5]: Increase; Effect of E4 peptide on HGF [6]: induces conversion of pro-HGF to its active chains; also recorded: Increase; Effect of E4 peptide on MMP-1 [7]: induces; also recorded: Increase; also recorded: increased levels and activity
